Reference: patent publication US20230003721A1, “MITOTHERAPEUTICS FOR THE TREATMENT OF BRAIN DISORDERS” (The University of Florida Research Foundation, Inc., priority 2019, published 2023)
Structures can show the parent of a compound that is named as a salt. Where two headings read alike, the source gives them in different places.

How the values were obtained:
[1] = tested on: primary forebrain neurons; assay: cells; settings: for EC50: Mus musculus, Neuron; for EC50 / Dendritic Mt CA / Neurite Area: 24 h; for Dendritic Mt CA / Neurite Area: rescreen, 12.5 μM, vs DMSO wells
Experimental: Primary forebrain cell culture and maintenance. Forebrains of P0 Mt or Mt/Ai14 pups without olfactory bulbs and meninges were collected and placed in ice cold Ca^2+ and Mg^2+ free HBSS supplemented with 2 μg/ml gentamicin, 25 mM D-glucose, 1 mM pyruvate and 20 mM HEPES. Brain tissue was digested with 0.6 mg/ml papain at 37° C. for 20 min. Forebrains were washed with plating media [Neurobasal (Gibco), 5% FBS, 4 mM GlutaMAX (Gibco), 2 μg/ml gentamicin]. The tissue was gently triturated, allowed to settle and the supernatant was filtered through a 40 μm mesh-sized cell strainer. Cells were centrifuged at 420×g for 4 min and resuspended in plating media. 15,000 cells per well were plated with 2×10^8 viral particles/ml onto black Greiner μClear (Cat #781946) or Ultra-Low Base Aurora with evaporation barrier (Cat #ABE201201B) 384-well plates (80 μl/well) pre-coated with poly-D-lysine for the primary screen and rescreen, respectively. Plating and media changes were performed using an automated Biomek FX^P liquid handling workstation. Four hr after plating, 75% of the plating media was replaced by feeding media [Neurobasal-A (Gibco), 4 mM GlutaMAX (Gibco), 2 μg/ml gentamicin, 2% B27 (Gibco)]. At DIV4, 50% of the media was exchanged with fresh feeding media supplemented with 16 μM 5-Fluoro-2′-deoxyuridine (FUdR) to prevent glial cell over-growth. At DIV8 and DIV12, additional 50% media changes were made without FUdR. Cells were maintained at 37° C. and 5% CO2; plates were topped with Breathe-Easy adhesive membranes (Greiner plates) to minimize evaporation.
Compounds and compound transfer.
Imaging. Images were captured using a GE Incell 6000 system (60× objective, 0.95 NA, 16-bit images) equipped with environmental control (37° C., 5% CO2). Mt-GFP (green channel) was imaged by confocal imaging (3 slices, Δz=0.7 μm, aperture=1.0 AU, λexc=488 nm, λem=515-535 nm). Cyto-tdTomato (red channel) and MitoTracker Orange (red channel) were imaged using confocal mode (3 slices, Δz=0.7 μm, aperture=1.0 AU, λexc=561 nm, λem=569-641 nm, MitoTracker Orange) or with widefield mode (Cyto-tdTomato). TMRM imaged for the co-localization experiments with Mt-GFP was imaged using the confocal mode (3 slices, […] aperture=1.0, λexc=488, λem=569-641 nm). For the live-dead assay, primary neurons were imaged with a 20× (widefield mode, NA 0.45) objective using λexc=561 nm and λem=569-641 nm for the propidium iodide stained dead cells (red channel), and λexc=488 nm and λem=515-535 nm for the fluorescein diacetate stained live cells (green channel). 10 fields were collected from each well, and 4 wells were imaged/condition in the live-dead assay. For all other experiments, 4 fields/well were imaged unless otherwise stated.
Automated data analysis pipeline. Most experiments utilized only Mt-GFP; some utilized both Mt-GFP and Cyto-tdTomato. The Z-projected images were preprocessed using a custom Fiji macro. For preprocessing of Mt-GFP images: background was subtracted (rolling ball, radius=3), images were median filtered (radius=1) and somatic mitochondria were removed. For removal of the somatic mitochondria, they were first segmented and then a somatic mitochondrial mask overlaid on the image.

[2] = tested on: primary forebrain neurons; settings: 48 h; for live:dead cell ratio in the presence of toxic concentrations of glutamate: 25 μM glutamate; for death among neurons compared to control: Aβ(1-42) 10 μM
[3] = tested on: isolated forebrain mitochondria; assay: ATP production of isolated mitochondria (luciferase-based kinetic assay); type: biochemical, mouse; settings: for ATP production kinetics, amplitude of single exponential fit: 12 μM, starting 20 min after addition, DMSO 22498±358; for ATP production of isolated mitochondria (direct effect): 12.5 μM, within the 45-min measurement period, vs DMSO
Experimental: Isolation of mitochondria. For the ATP synthesis experiments of FIG. 6, forebrains from P0 pups were dissected as described above. 2×10^7 cells were harvested for high-purity mitochondrial isolation using the Qiagen QProteome kit. The mitochondrial pellet was resuspended in 500 μl mitochondria storage buffer (provided by kit) and kept on ice until further use.
ATP production of isolated forebrain mitochondria of P0 pups was measured by ATP Determination Kit (Molecular Probes). […] The reactions were initiated by the addition of 1 mM ADP (deprived of ATP contamination by adding 3 U/ml hexokinase to 10 mM of ADP in 50 mM Tris-HCl, 20 mM MgCl2 and 22 mM glucose, incubating the solution at 37° C. for 1 hr and heat inactivating the hexokinase at 100° C. for 3 min). Luminescence was recorded every 15-30 sec for 1 hr at 580±40 nm.

primary neurons [4] = settings: for protection from peroxide (PO) induced mitochondrial fragmentation: 75 μM peroxide
primary neurons [5] = assay: CellTiter-Glo luminescence-based ATP assay; type: cell-based, mouse; settings: for ATP: ATP orthogonal screen, 24 h; for EC50 / Emax: Mus musculus, Primary neuron, dose response; for EC50: 15 concentrations from 6 nM to 100 uM; for Emax: maximal percent increase relative to in-plate DMSO controls, read-out: ATP (Effect-size)
Outline: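 Primary neurons treated from DIV13 for 24 h with compound or DMSO. After part of the medium was removed, CellTiter-Glo reagent was added; plates were shaken 10 min at 200 rpm, kept 2 min in the dark at room temperature, and luminescence read as total ATP.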

primary neurons [6] = assay: TMRM fluorescence assay of inner mitochondrial membrane potential (ΔΨm); settings: for TMRM Primary: primary screen, 12.5 μM; for TMRM Primary / TMRM Rescreen: 24 h; for Emax / EC50: Mus musculus, Primary neuron; for Emax: read-out: TMRM (Effect-size); for EC50: read-out: TMRM-EC50
Drosophila model for AD = assay: Drosophila model for AD: neuronal mitochondrial morphology; type: in vivo; settings: cell bodies of neurons; 100 micromolar, 15 days-of-age
Text: To assay representative compounds in this example, we employed a Drosophila model for AD (X. Wang et al., Mol. Neurobiol. […] Flies expressing this toxic protein show: […] Drugs that show efficacy therefore: enlarge neuronal mitochondria (increased volume, increased surface area, increased length), reduce sphericity, and reduce the number of mitochondria compared to untreated Alzheimer's flies. The AD model flies were collected immediately after eclosion from the pupal case and transferred to food that was laced with drug at 100 micromolar concentration. The flies were aged to 15 days-of-age: this is when the mitochondrial pathology is very robust. We compared the morphology of mitochondria collected from these flies treated with drug and compared them to the mitochondria of flies that remained untreated.

[7] = read-out: Health (Ax Mt Circularity) EC50
[8] = read-out: Sprouting (Neurite Area) EC50
[9] = read-out: Elongation (Dend Mt length) EC50
[10] = read-out: Mt Content (Dend Mt CA) EC50
[11] = peroxide 75 μM, glutamate 25 μM

Row | Molecule | EC50 [1, 7] | EC50 [1, 8] | Dendritic Mt CA [1] | Neurite Area [1] | live:dead cell ratio in the presence of toxic concentrations of glutamate [2] | ATP production kinetics, amplitude of single exponential fit [3] | ATP production of isolated mitochondria (direct effect) [3] | EC50 [1, 10] | protection from peroxide (PO) induced mitochondrial fragmentation (primary neurons [4]; 12.5 μM compound, 48 h) | ATP (primary neurons [5]) | TMRM Primary (primary neurons [6]) | TMRM Rescreen (primary neurons [6]) | EC50 (primary neurons [5]) | Emax (primary neurons [5]) | Emax (primary neurons [6]) | EC50 (primary neurons [6]) | other results
1 | O=C(/C=C/c1ccccc1)c1ccc(O)cc1O [2′,4′-DIHYDROXYCHALCONE] | 6700 nM | > 25000 nM | 3.39 robust Z-scores | 0.42 robust Z-scores | offered protection | 9853±132 | decreased | – | – | – | – | – | – | – | – | – | –
2 | O=C(/C=C/c1ccccc1)c1ccc(O)cc1 [4′-HYDROXYCHALCONE] | 5800 nM | 900 nM | 5.11 robust Z-scores | 2.21 robust Z-scores | offered protection | 6121±99 | decreased | 4800 nM | fully protected | – | – | – | – | – | – | – | EC50 [1, 9]: 2300 nM
3 | CCN(CCCc1ccccc1)CCCc1ccccc1 [ALVERINE CITRATE] | 300 nM | > 25000 nM | 5.09 robust Z-scores | −1.50 robust Z-scores | offered protection | 28383±278 | significantly increased | 200 nM | fully protected | 4.56 Z-scores | 4.24 Z-scores | 4.15 Z-scores | – | – | – | – | ATP production in neurons (primary neurons [5]; after 24 hr of treatment): increased; EC50 [1, 9]: 2900 nM; protection from glutamate (GLUT) induced mitochondrial fragmentation (primary neurons [4]; 25 μM glutamate, 12.5 μM compound, 48 h): fully protected
4 | N#CC(C#N)=NNc1ccc(OC(F)(F)F)cc1 [FCCP, carbonyl cyanide-p-trifluoromethoxyphenylhydrazone] | – | – | – | – | – | 17958±216 | – | – | – | – | – | – | – | – | – | – | average area of axonal mitochondria [1]: 0.39 μm^2; average area of dendritic mitochondria [1]: 1.06 μm^2; average well axonal mitochondrial CA [1]: 629±83 μm^2; average well dendritic mitochondrial CA [1]: 123±44 μm^2; increase in axonal mitochondrial CA [1]: 225 μm^2; median axonal mitochondrial circularity [1]: 0.94±0.004; median dendritic mitochondrial length [1]: 2.77±0.07 μm; number of axonal mitochondria [1]: 51767; number of dendritic mitochondria [1]: 3713; sum of dendritic and axonal mitochondrial CA [1]: 754 μm^2; reduction in the average dendritic mitochondrial CA per well ([1]; FCCP treatment vs DMSO): ~90%
5 | COc1ccccc1N1CCN(CC(O)COc2cccc3ccccc23)CC1 (stereo not shown) [NAFTOPIDIL] | 200 nM | 500 nM | 4.86 robust Z-scores | 2.41 robust Z-scores | – | 49917±838 | significantly increased | 100 nM | fully protected | 3.62 Z-scores | 3.64 Z-scores | 9.07 Z-scores | 230 nM | 15% | 18.8% | 2240 nM | –
6 | COc1ccccc1OCCNCC(O)COc1cccc2[nH]c3ccccc3c12 (stereo not shown) [carvedilol] | – | – | – | – | – | – | – | – | – | 5.32 Z-scores | 4.11 Z-scores | 5.71 Z-scores | 230 nM | 15.9% | 20.2% | 350 nM | Surface area of mitochondria, p (treated vs untreated) (Drosophila model for AD): p = 0.078
7 | N[C@@H](CCC(=O)O)C(=O)[O-].[Na+] [glutamate, monosodium glutamate] | – | – | – | – | – | – | – | – | – | – | – | – | – | – | – | – | death among neurons compared to control [2, 11]: 42%; live cell ratio (live cells/live+dead cells) ([2]; peroxide 75 μM, glutamate 25 μM, control 0.57): 0.26
8 | O=c1[nH]c2ccccc2n1C1CCN(CCCC(c2ccc(F)cc2)c2ccc(F)cc2)CC1 [pimozide] | – | – | – | – | – | – | – | – | – | 6.60 Z-scores | 2.65 Z-scores | 3.74 Z-scores | 90 nM | 20.4% | 25.1% | 130 nM | Surface area of mitochondria, p (treated vs untreated) (Drosophila model for AD): p = 0.017
9 | Aβ(1-40): less-toxic oligomeric amyloid-β peptide used as control | – | – | – | – | – | – | – | – | – | – | – | – | – | – | – | – | mitochondrial fragmentation caused by oligomeric peptide (primary neurons [4]): failed to cause mitochondrial fragmentation
10 | Aβ(1-42): toxic amyloid-β peptide fragment, oligomeric, HFIP-treated peptide (BACHEM) | – | – | – | – | – | – | – | – | – | – | – | – | – | – | – | – | death among neurons compared to control [2, 11]: no detectable death
